Test results reported in patent US20220370440A1 (Lead Discovery Center GmbH, priority 2018, published 2022).

Key:
H1975 = H1975 CellTiter-Glo; assay type: cell-based; details: Homo sapiens, NCI-H1975; 72 h compound incubation; read-out: H1975 CTG IC50
Procedure, shortened: (§1)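 Cells seeded, after 24 h at 37° C/5% CO2 treated with compounds in DMSO at various concentrations for 72 h. Viability from ATP luminescence (CellTiter-Glo); DMSO and 10 μM Staurosporine as controls; IC50 from dose-response fit, plates accepted at Z′ ≥0.5.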

EGFR T790ML858R = EGFR T790ML858R (Homo sapiens, UniProt P00533, L858R/T790M); test: EGFR T790ML858R Lance assay; assay type: biochemical
Chain of EGFR T790ML858R (P00533 25-1210 T790M/L858R): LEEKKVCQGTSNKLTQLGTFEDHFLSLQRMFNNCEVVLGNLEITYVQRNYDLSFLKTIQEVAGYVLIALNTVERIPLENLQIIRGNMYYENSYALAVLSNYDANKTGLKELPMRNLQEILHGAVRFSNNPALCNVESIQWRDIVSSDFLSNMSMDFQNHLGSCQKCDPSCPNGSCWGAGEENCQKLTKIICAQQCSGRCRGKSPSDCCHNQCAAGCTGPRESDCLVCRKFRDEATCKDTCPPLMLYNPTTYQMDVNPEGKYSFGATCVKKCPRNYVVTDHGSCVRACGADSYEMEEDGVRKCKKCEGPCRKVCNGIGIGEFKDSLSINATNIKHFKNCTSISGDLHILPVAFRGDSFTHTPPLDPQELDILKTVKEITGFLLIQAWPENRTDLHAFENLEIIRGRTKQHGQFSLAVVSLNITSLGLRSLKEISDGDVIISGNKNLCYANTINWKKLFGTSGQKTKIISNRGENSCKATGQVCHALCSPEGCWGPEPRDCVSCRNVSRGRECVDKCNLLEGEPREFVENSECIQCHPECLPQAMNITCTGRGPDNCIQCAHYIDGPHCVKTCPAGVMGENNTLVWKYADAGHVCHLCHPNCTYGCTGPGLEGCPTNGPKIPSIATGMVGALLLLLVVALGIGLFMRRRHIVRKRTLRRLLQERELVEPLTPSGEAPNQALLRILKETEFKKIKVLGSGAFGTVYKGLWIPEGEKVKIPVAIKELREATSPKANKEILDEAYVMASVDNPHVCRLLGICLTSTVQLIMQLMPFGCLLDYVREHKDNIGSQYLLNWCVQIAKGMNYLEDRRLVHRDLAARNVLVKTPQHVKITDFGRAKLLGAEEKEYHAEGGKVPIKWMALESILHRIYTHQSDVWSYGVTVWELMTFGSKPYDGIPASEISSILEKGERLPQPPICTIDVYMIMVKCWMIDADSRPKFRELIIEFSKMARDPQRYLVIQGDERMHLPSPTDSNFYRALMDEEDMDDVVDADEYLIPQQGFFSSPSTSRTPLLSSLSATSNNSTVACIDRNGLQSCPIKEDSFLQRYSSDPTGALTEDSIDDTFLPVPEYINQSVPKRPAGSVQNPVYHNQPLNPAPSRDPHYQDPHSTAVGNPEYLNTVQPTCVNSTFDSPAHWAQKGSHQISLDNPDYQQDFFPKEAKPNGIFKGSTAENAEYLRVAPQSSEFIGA
Protocol: (§2) Inhibition is indicated as […] [nM] (“−”=not measured). Compounds having an activity designated as “A” provided an IC50≤100 nM; compounds having an activity designated as “B” provided an 100 nM<IC50≤500 nM; compounds having an activity designated as “C” provided an 500 nM<IC50≤1000 nM; compounds having an activity designated as “D” provided an 1000 nM<IC50≤100000 nM; and compounds having an activity designated as “E” provided an IC50>10000 nM.

HER2 INS YVMA = biological target: T1, HER2 INS YVMA (Homo sapiens, UniProt P04626, INS775YVMA); test: Lance Kinase Activity Assay, HER2 INS YVMA (Her2 Exon 20 INSYVMA Lance); assay type: biochemical; details: biochemical Lance assay
T1 construct: purchased DPF
T1 sequence (P04626 with tags, fused parts or gaps INS775YVMA): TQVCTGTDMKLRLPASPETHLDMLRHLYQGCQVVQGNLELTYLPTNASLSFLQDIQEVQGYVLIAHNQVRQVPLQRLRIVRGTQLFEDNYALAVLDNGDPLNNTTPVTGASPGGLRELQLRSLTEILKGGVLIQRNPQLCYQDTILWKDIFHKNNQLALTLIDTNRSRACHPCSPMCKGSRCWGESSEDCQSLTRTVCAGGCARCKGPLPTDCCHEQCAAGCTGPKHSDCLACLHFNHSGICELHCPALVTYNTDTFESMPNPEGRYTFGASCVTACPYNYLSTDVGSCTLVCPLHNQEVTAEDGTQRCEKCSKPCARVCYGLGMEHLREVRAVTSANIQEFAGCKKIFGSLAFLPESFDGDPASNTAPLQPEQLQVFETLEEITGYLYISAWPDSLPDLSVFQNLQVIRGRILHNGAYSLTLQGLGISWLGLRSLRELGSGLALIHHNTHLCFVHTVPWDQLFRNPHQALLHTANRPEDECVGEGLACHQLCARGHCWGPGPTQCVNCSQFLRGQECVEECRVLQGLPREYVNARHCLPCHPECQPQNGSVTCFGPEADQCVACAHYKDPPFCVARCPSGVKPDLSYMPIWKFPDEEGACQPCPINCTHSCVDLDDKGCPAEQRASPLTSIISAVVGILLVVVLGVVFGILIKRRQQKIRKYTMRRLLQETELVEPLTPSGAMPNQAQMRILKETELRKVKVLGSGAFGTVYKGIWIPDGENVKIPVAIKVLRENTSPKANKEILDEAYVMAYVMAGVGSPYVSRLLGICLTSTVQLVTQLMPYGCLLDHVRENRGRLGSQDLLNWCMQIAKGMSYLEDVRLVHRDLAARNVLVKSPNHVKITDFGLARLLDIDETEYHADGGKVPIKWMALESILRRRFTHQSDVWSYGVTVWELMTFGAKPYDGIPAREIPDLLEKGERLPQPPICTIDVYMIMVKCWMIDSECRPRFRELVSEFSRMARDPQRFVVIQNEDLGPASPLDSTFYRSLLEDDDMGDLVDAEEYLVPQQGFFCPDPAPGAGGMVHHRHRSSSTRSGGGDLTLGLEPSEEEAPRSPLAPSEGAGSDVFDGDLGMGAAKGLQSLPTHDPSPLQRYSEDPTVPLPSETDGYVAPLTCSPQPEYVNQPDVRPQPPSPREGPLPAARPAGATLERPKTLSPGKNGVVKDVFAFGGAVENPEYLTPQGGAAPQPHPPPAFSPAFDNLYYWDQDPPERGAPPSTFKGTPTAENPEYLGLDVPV
Procedure, shortened: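 Kinase phosphorylates a ULight-labelled peptide substrate; Eu anti-phospho antibody gives TR-FRET (ex 340 nm, em 665/615 nm). Compounds in 1:3 serial dilution over 8 steps, reaction started with ATP, 1 h at room temperature, stopped with EDTA-containing detection mix for 1 h. IC50 from sigmoidal dose-response curves.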

[1] = biological target: Her2 Exon 20 INSYVMA Ba/F3 (Homo sapiens, UniProt P04626, DUP772-775, cells depend on it); test: Her2 Exon 20 INSYVMA Ba/F3 CellTiter-Glo; assay type: cell-based; details: CellTiter-Glo, 72 h, read-out: Her2 Exon 20 INSYVMA Ba/F3 CTG IC50
Chain of Her2 Exon 20 INSYVMA Ba/F3 (P04626 with tags, fused parts or gaps DUP772-775): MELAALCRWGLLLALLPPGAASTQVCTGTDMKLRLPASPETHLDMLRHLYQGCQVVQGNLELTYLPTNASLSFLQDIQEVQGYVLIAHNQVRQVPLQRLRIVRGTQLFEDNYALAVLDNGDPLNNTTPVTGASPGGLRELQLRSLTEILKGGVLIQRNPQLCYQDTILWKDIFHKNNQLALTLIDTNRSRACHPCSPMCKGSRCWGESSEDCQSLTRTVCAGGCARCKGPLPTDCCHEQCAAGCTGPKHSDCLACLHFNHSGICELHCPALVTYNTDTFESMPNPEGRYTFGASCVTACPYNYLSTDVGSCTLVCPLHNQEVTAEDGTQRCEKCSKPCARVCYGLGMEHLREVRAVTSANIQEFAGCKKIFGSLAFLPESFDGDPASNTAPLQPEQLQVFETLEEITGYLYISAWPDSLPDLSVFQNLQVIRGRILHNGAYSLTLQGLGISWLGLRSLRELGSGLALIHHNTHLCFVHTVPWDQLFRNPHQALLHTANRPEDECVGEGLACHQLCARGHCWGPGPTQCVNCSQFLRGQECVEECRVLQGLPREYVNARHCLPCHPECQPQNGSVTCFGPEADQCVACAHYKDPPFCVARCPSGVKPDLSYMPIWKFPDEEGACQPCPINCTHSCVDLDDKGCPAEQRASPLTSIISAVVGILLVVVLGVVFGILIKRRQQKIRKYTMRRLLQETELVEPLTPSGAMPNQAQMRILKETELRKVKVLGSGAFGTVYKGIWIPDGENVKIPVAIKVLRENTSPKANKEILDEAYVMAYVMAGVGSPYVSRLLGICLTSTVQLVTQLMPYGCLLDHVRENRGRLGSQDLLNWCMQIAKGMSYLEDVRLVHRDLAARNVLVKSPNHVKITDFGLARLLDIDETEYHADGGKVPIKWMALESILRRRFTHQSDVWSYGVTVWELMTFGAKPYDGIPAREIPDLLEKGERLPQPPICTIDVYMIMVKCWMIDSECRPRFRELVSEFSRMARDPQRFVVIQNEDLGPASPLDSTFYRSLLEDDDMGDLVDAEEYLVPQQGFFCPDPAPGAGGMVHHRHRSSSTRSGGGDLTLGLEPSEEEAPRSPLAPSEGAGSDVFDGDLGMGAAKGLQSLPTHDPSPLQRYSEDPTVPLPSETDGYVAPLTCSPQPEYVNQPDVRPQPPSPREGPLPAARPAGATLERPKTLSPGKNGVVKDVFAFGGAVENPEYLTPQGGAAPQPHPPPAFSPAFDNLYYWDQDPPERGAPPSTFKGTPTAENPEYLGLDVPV
Procedure, shortened: (§3)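 IC50 values, binned A (≤100 nM) through E (>10000 nM), come from luminescent ATP quantitation of viable mutant-driven Ba/F3 cells. Compound exposure lasted 72 h, starting 24 h post-seeding; DMSO and 10 μM staurosporine served as controls, Z′ ≥0.5 required.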

EGFR wt = EGFR wt (Homo sapiens, UniProt P00533); test: EGFR wt Lance assay; assay type: biochemical
Chain of EGFR wt (P00533 25-1210): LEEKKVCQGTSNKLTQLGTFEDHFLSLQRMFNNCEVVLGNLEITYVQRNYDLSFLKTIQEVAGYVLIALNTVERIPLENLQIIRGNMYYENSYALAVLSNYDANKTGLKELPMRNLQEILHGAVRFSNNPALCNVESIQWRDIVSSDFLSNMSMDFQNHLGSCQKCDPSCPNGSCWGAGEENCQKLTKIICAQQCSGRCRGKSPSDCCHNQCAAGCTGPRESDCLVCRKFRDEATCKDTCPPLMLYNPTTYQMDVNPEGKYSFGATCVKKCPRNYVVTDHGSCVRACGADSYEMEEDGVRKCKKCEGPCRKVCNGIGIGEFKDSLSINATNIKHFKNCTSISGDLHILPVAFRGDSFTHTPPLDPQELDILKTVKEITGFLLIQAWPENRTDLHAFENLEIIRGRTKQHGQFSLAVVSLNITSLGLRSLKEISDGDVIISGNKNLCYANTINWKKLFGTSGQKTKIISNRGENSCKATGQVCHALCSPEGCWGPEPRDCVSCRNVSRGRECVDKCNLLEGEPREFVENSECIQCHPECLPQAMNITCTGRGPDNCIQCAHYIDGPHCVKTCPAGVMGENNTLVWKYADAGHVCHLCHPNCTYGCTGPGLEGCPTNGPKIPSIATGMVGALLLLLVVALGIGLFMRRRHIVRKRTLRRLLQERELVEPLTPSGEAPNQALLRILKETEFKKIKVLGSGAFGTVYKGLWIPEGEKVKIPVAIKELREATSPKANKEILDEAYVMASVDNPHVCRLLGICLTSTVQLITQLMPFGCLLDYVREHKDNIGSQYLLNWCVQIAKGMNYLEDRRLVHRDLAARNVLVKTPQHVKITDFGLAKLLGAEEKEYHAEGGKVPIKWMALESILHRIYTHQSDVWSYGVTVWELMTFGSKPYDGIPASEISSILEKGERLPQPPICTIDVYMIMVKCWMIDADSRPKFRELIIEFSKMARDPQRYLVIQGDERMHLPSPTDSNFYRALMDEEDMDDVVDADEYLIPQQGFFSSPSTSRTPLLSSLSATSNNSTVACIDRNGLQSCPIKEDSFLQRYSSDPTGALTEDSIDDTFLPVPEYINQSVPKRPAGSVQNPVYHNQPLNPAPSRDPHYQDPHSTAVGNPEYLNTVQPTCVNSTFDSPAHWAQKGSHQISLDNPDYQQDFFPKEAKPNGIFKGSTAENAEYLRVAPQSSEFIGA
Protocol: as §2

A431 = A431 CellTiter-Glo; assay type: cell-based; details: Homo sapiens, A-431; 72 h compound incubation; read-out: A431 CTG IC50
Procedure, shortened: as §1

[2] = biological target: EGFR Exon 20 INSNPH Ba/F3 (Homo sapiens, UniProt P00533, DUP771-773, cells depend on it); test: EGFR Exon 20 INSNPH Ba/F3 CellTiter-Glo; assay type: cell-based; details: CellTiter-Glo, 72 h, read-out: EGFR Exon 20 INSNPH Ba/F3 CTG IC50
Procedure, shortened: as §3

[3] = Metabolic stability in mouse liver microsomes without cofactor NADPH; assay type: in vitro ADME; details: 3 μM test compound, mouse liver microsomes, without NADPH, 50 min, 37° C., LC-MS/MS
Source text: There are two major groups of enzyme reactions catalyzed by drug metabolizing enzymes, the so called Phase I and Phase II reactions. The basic processes in phase I reactions are oxidation, reduction and/or hydrolysis mostly catalyzed by the cytochrome P450 (CYP) family of enzymes.
The following procedures describe the determination of the in vitro Phase I metabolic stability of test compounds using liver microsomes by measuring compound depletion over time. Test compound at the concentration of 3 μM was incubated with the liver microsomes from the mouse species and the experiment was performed without NADPH. The depletion of the test compounds was measured over time up to 50 minutes at 37° C. by LC-MS/MS. Different compounds were tested under these conditions for microsomal stability (see Table 5).

| Compound | IC50 (H1975) | IC50 (EGFR T790ML858R) | IC50 (HER2 INS YVMA) | GI50 [1] | IC50 (EGFR wt) | IC50 (A431) | GI50 [2] | Stability in presence of mouse liver microsomes without cofactor NADPH [% remaining after 50 min] [3] |
| --- | --- | --- | --- | --- | --- | --- | --- | --- |
| C=CC(=O)Nc1cc(-c2c(-c3ccc(OCCN4CCCC4)cc3)[nH]c3nccc(Cl)c23)ccc1C [Example 38, N-(5-(4-chloro-2-(4-(2-(pyrrolidin-1-yl)ethoxy)phenyl)-1H-pyrrolo[2,3-b]pyridin-3-yl)-2-methylphenyl)acrylamide] | ≤ 100 nM | ≤ 100 nM | ≤ 100 nM | ≤ 100 nM | ≤ 100 nM | 100 to 500 nM | ≤ 100 nM | >99 % remaining after 50 min |
| C=CC(=O)N1CCc2ccc(-c3c(-c4ccc(N5CCN(CC)CC5)cc4)[nH]c4nccc(Cl)c34)cc21 [Example 63, 1-(6-(4-chloro-2-(4-(4-ethylpiperazin-1-yl)phenyl)-1H-pyrrolo[2,3-b]pyridin-3-yl)indolin-1-yl)prop-2-en-1-one] | ≤ 100 nM | ≤ 100 nM | ≤ 100 nM | 100 to 500 nM | ≤ 100 nM | 500 to 1000 nM | 100 to 500 nM | >99 % remaining after 50 min |
| C=CC(=O)N1CCCc2ccc(-c3c(-c4ccc(OCCN(C)C)cc4)[nH]c4nccc(Cl)c34)cc21 [Example 92, 1-(7-(4-chloro-2-(4-(2-(dimethylamino)ethoxy)phenyl)-1H-pyrrolo[2,3-b]pyridin-3-yl)-3,4-dihydroquinolin-1(2H)-yl)prop-2-en-1-one] | 500 to 1000 nM | ≤ 100 nM | ≤ 100 nM | 500 to 1000 nM | ≤ 100 nM | 1000 to 100000 nM | 1000 to 10000 nM | >99 % remaining after 50 min |
| C=CC(=O)N1CCc2ccc(-c3c(-c4ccc(OCCN(C)C)cc4)[nH]c4nccc(Cl)c34)cc21 [Example 67, 1-(6-(4-chloro-2-(4-(2-(dimethylamino)ethoxy)phenyl)-1H-pyrrolo[2,3-b]pyridin-3-yl)indolin-1-yl)prop-2-en-1-one] | 100 to 500 nM | ≤ 100 nM | ≤ 100 nM | 100 to 500 nM | ≤ 100 nM | 1000 to 100000 nM | 100 to 500 nM | >99 % remaining after 50 min |
| C=CC(=O)Nc1cc(-c2c(-c3ccc(CCN(C)C)cc3)[nH]c3ncc(C(=O)OC(C)C)cc23)ccc1C [Example 161, isopropyl 3-(3-acrylamido-4-methylphenyl)-2-(4-(2-(dimethylamino)ethyl)phenyl)-1H-pyrrolo[2,3-b]pyridine-5-carboxylate] | 100 to 500 nM | ≤ 100 nM | ≤ 100 nM | 100 to 500 nM | ≤ 100 nM | 1000 to 100000 nM | 100 to 500 nM | >99 % remaining after 50 min |
| C=CC(=O)Nc1cc(-c2c(-c3cccc(CN4CCN(C(C)=O)CC4)c3)[nH]c3nccc(Cl)c23)ccc1C [Example 22, N-(5-(2-(3-((4-acetylpiperazin-1-yl)methyl)phenyl)-4-chloro-1H-pyrrolo[2,3-b]pyridin-3-yl)-2-methylphenyl)acrylamide] | 100 to 500 nM | ≤ 100 nM | 100 to 500 nM | 500 to 1000 nM | 100 to 500 nM | – | 1000 to 10000 nM | >99 % remaining after 50 min |
| C=CC(=O)Nc1cc(-c2c(-c3ccc(NS(C)(=O)=O)cc3)[nH]c3nccc(Cl)c23)ccc1C [Example 12, N-(5-(4-chloro-2-(4-(methylsulfonamido)phenyl)-1H-pyrrolo[2,3-b]pyridin-3-yl)-2-methylphenyl)acrylamide] | ≤ 100 nM | ≤ 100 nM | 100 to 500 nM | 100 to 500 nM | ≤ 100 nM | – | 100 to 500 nM | >99 % remaining after 50 min |
| C=CC(=O)Nc1cc(-c2c(-c3ccc(N4CCOCC4)nc3)[nH]c3nccc(Cl)c23)ccc1C [Example 30, N-(5-(4-chloro-2-(6-morpholinopyridin-3-yl)-1H-pyrrolo[2,3-b]pyridin-3-yl)-2-methylphenyl)acrylamide] | 100 to 500 nM | ≤ 100 nM | 100 to 500 nM | 1000 to 10000 nM | ≤ 100 nM | – | 500 to 1000 nM | >99 % remaining after 50 min |
| C=CC(=O)Nc1cc(-c2c(-c3cncnc3)[nH]c3nccc(Cl)c23)ccc1C [Example 24, N-(5-(4-chloro-2-(pyrimidin-5-yl)-1H-pyrrolo[2,3-b]pyridin-3-yl)-2-methylphenyl)acrylamide] | 100 to 500 nM | ≤ 100 nM | 100 to 500 nM | 500 to 1000 nM | 100 to 500 nM | – | 500 to 1000 nM | >99 % remaining after 50 min |
| C=CC(=O)Nc1cc(-c2c(-c3ccc(C4CCNCC4)cc3)[nH]c3nccc(Cl)c23)ccc1C [Example 29, N-(5-(4-chloro-2-(4-(piperidin-4-yl)phenyl)-1H-pyrrolo[2,3-b]pyridin-3-yl)-2-methylphenyl)acrylamide] | ≤ 100 nM | ≤ 100 nM | ≤ 100 nM | 500 to 1000 nM | ≤ 100 nM | – | 500 to 1000 nM | >99 % remaining after 50 min |
| C=CC(=O)Nc1cc(-c2c(-c3cccc(N4CCOCC4)c3)[nH]c3nccc(Cl)c23)ccc1C [Example 6, N-(5-(4-chloro-2-(3-morpholinophenyl)-1H-pyrrolo[2,3-b]pyridin-3-yl)-2-methylphenyl)acrylamide] | 100 to 500 nM | ≤ 100 nM | 500 to 1000 nM | 500 to 1000 nM | ≤ 100 nM | – | 500 to 1000 nM | >99 % remaining after 50 min |
| C=CC(=O)Nc1cc(-c2c(-c3ccc(NC(C)=O)cc3)[nH]c3nccc(Cl)c23)ccc1C [Example 14, N-(5-(2-(4-acetamidophenyl)-4-chloro-1H-pyrrolo[2,3-b]pyridin-3-yl)-2-methylphenyl)acrylamide] | 100 to 500 nM | ≤ 100 nM | 100 to 500 nM | 500 to 1000 nM | ≤ 100 nM | – | 500 to 1000 nM | 68 % remaining after 50 min |
| C=CC(=O)Nc1cc(-c2c(-c3ccc(C4CCN(C)CC4)cc3)[nH]c3nccc(OCC)c23)ccc1C [Example 147, 2,2,2-trifluoroacetate] | ≤ 100 nM | ≤ 100 nM | ≤ 100 nM | 500 to 1000 nM | ≤ 100 nM | – | 500 to 1000 nM | 94 % remaining after 50 min |
| C=CC(=O)Nc1cc(-c2c(-c3ccc(N4CCN(C(C)=O)CC4)nc3)[nH]c3nccc(Cl)c23)ccc1C [Example 31, N-(5-(2-(6-(4-acetylpiperazin-1-yl)pyridin-3-yl)-4-chloro-1H-pyrrolo[2,3-b]pyridin-3-yl)-2-methylphenyl)acrylamide] | 100 to 500 nM | ≤ 100 nM | 100 to 500 nM | 1000 to 10000 nM | 500 to 1000 nM | – | 1000 to 10000 nM | >99 % remaining after 50 min |
